From US8575156B2, “Cyclic inhibitors of 11β-hydroxysteroid dehydrogenase 1” (Vitae Pharmaceuticals, Inc., priority 2007, dated 2013)
Where two headings read alike, the source gives them in different places.

Biological target: 11β-HSD1 (Homo sapiens, UniProt P28845)
Experiment: biochemical
Conditions: for IC50: IC50 Range, Biological Test Example 1, microsomes from CHO cells overexpressing human 11β-HSD1; for inhibition at 0.1 µM: read-out: Average % inhibition at 100 nM, Biological Test Example 1; for inhibition at 0.1111 µM: read-out: Average % inhibition at 111.1 nM, Biological Test Example 1, 111.1 nM compound

11β-HSD1, sequence (P28845 whole entry): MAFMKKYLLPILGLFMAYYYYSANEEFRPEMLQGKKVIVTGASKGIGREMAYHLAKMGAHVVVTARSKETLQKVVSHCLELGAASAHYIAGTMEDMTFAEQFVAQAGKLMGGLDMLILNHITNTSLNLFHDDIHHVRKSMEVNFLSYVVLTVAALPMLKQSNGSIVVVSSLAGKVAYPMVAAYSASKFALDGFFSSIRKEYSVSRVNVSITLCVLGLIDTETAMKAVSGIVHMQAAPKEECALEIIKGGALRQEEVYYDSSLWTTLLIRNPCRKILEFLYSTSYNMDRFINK

IC50 [µM] | inhibition at 0.1 µM (100 nM) [%] | inhibition at 0.1111 µM [%] | inhibition at 0.1 µM (100 nM compound) [%] | Structure (SMILES)
< 0.1 | 88.7 | – | – | CC(O)CC[C@]1(c2ccc(F)cc2)CCN([C@@H](C)c2ccc(F)cc2)C(=O)O1 (single isomer, unassigned) [EXAMPLE 411 Isomer 1]
< 0.1 | 77.9 | – | – | COc1ccc([C@H](C)N2CC[C@](C)(c3ccc(CO)cc3)OC2=O)cc1 (single isomer, unassigned) [EXAMPLE 429 Isomer 1]
> 0.1 | 23 | – | – | COc1ccc([C@H](C)N2CC[C@@](C)(c3ccc(CO)cc3)OC2=O)cc1 (single isomer, unassigned) [EXAMPLE 429 Isomer 2]
< 0.1 | – | – | – | C=CC[C@@]1(c2ccc(F)cc2)CCN([C@@H](C)c2ccc(Cl)c(F)c2)C(=O)O1 (single isomer, unassigned) [EXAMPLE 497 Isomer 1]
< 0.1 | – | – | – | C=CC[C@]1(c2ccc(F)cc2)CCN([C@@H](C)c2ccc(Cl)c(F)c2)C(=O)O1 (single isomer, unassigned) [EXAMPLE 497 Isomer 2]
> 0.1 | – | – | – | C=CC[C@@]1(c2ccc(F)cc2)CCN([C@H](C)c2ccc(Cl)c(F)c2)C(=O)O1 (single isomer, unassigned) [EXAMPLE 497 Isomer 3]
< 0.1 | – | – | – | C=CC[C@]1(c2ccc(F)cc2)CCN([C@H](C)c2ccc(Cl)c(F)c2)C(=O)O1 (single isomer, unassigned) [EXAMPLE 497 Isomer 4]
< 0.1 | 49.9 | – | – | C[C@@H](c1ccc(Br)cc1)N1CC[C@@](CCC(N)=O)(c2ccc(F)cc2F)OC1=O (single isomer, unassigned) [EXAMPLE 504 Isomer 1]
< 0.1 | 94.4 | – | – | C[C@@H](c1ccc(Br)cc1)N1CC[C@](CCC(N)=O)(c2ccc(F)cc2F)OC1=O (single isomer, unassigned) [EXAMPLE 504 Isomer 2]
< 0.1 | 92.2 | – | – | C[C@@H](c1ccc(Br)cc1)N1CC[C@@](C)(c2ccc(F)cc2)OC1=O (single isomer, unassigned) [EXAMPLE 518 Isomer 1]
< 0.1 | 98 | – | – | C[C@@H](c1ccc(Br)cc1)N1CC[C@](C)(c2ccc(F)cc2)OC1=O (single isomer, unassigned) [EXAMPLE 518 Isomer 2]
< 0.1 | – | – | – | Cc1cc(-c2ccc([C@H](C)N3CCC(C)(c4ccc(F)cc4)OC3=O)cc2)ccn1 (single isomer, unassigned) [EXAMPLE 519 Isomer 1]
< 0.1 | 94.5 | – | – | CC(C[C@]1(c2ccc(F)cc2)CCN([C@@H](C)c2ccc(Br)cc2)C(=O)O1)C(N)=O (single isomer, unassigned) [EXAMPLE 523 Isomer 1]
< 0.1 | 99.5 | – | – | CC(CO)C[C@]1(c2ccc(F)cc2)CCN([C@@H](C)c2ccc(Br)cc2)C(=O)O1 (single isomer, unassigned) [EXAMPLE 577 Isomer 1]
< 0.1 | – | 90.5 | – | CC1(c2ccccc2)CCN(c2cccc(-c3ccccc3Cl)c2)C(=O)O1 (stereo not shown) [EXAMPLE 10, 3-(2′-chlorobiphenyl-3-yl)-6-methyl-6-phenyl-1,3-oxazinan-2-one]
0.1 to 1 | – | 28.4 | – | CC1(c2ccccc2)CCN(c2cccc(-c3ccc(S(C)(=O)=O)cc3)c2)C(=O)O1 (stereo not shown) [EXAMPLE 11, 3-(4′-Methanesulfonyl-biphenyl-3-yl)-6-methyl-6-phenyl-[1,3]oxazinan-2-one]
< 0.1 | – | 86.4 | – | CC1(c2ccccc2)CCN(c2cccc(-c3ccccc3C#N)c2)C(=O)O1 (stereo not shown) [EXAMPLE 12, 3′-(6-Methyl-2-oxo-6-phenyl-[1,3]oxazinan-3-yl)-biphenyl-2-carbonitrile]
0.1 to 1 | – | 19.2 | – | CC(C)NS(=O)(=O)c1ccc(-c2cccc(N3CCC(C)(c4ccccc4)OC3=O)c2)cc1 (stereo not shown) [EXAMPLE 13, N-isopropyl-3′-(6-methyl-2-oxo-6-phenyl-1,3-oxazinan-3-yl)biphenyl-4-sulfonamide]
0.1 to 1 | – | 21.9 | – | CN(C)S(=O)(=O)c1cccc(-c2cccc(N3CCC(C)(c4ccccc4)OC3=O)c2)c1 (stereo not shown) [EXAMPLE 14, N,N-dimethyl-3′-(6-methyl-2-oxo-6-phenyl-1,3-oxazinan-3-yl)biphenyl-3-sulfonamide]
0.1 to 1 | – | 38.5 | – | CC1(c2ccccc2)CCN(c2cccc(-c3ccccc3S(C)(=O)=O)c2)C(=O)O1 (stereo not shown) [EXAMPLE 15, 6-methyl-3-(2′-(methylsulfonyl)biphenyl-3-yl)-6-phenyl-1,3-oxazinan-2-one]

IC50 [µM] | inhibition at 0.1 µM (100 nM) [%] | inhibition at 0.1111 µM [%] | inhibition at 0.1 µM (100 nM compound) [%] | Structure (SMILES)
0.1 to 1 | – | 35.7 | – | CC1(c2ccccc2)CCN(c2cccc(-c3ccc(S(=O)(=O)N4CCCC4)cc3)c2)C(=O)O1 (stereo not shown) [EXAMPLE 16, 6-methyl-6-phenyl-3-(4′-(pyrrolidin-1-ylsulfonyl)biphenyl-3-yl)-1,3-oxazinan-2-one]
< 0.1 | – | 58.8 | – | CC1(c2ccccc2)CCN(c2cccc(-c3cccc(C#N)c3)c2)C(=O)O1 (stereo not shown) [EXAMPLE 17, 3′-(6-methyl-2-oxo-6-phenyl-1,3-oxazinan-3-yl)biphenyl-3-carbonitrile]
0.1 to 1 | – | 7.2 | – | COCCNC(=O)c1cccc(-c2cccc(N3CCC(C)(c4ccccc4)OC3=O)c2)c1 (stereo not shown) [EXAMPLE 18, N-(2-methoxyethyl)-3′-(6-methyl-2-oxo-6-phenyl-1,3-oxazinan-3-yl)biphenyl-3-carboxamide]
0.1 to 1 | – | 24 | – | CC1(c2ccccc2)CCN(c2cccc(-c3ccc(CNS(C)(=O)=O)cc3)c2)C(=O)O1 (stereo not shown) [EXAMPLE 19, N-((3′-(6-methyl-2-oxo-6-phenyl-1,3-oxazinan-3-yl)biphenyl-4-yl)methyl)methanesulfonamide]
< 0.1 | – | 76.7 | – | COc1ccccc1-c1cccc(N2CCC(C)(c3ccccc3)OC2=O)c1 (stereo not shown) [EXAMPLE 21, 3-(2′-methoxybiphenyl-3-yl)-6-methyl-6-phenyl-1,3-oxazinan-2-one]
< 0.1 | – | 88.9 | – | CC1(c2ccccc2)CCN(c2cccc(-c3c(Cl)cccc3Cl)c2)C(=O)O1 (stereo not shown) [EXAMPLE 22, 3-(2′,6′-dichlorobiphenyl-3-yl)-6-methyl-6-phenyl-1,3-oxazinan-2-one]
< 0.1 | – | 86 | 93.4 | CC1(c2ccccc2)CCN(c2cccc(-c3cccc(Cl)c3)c2)C(=O)O1 (stereo not shown) [EXAMPLE 24, 3-(3′-chlorobiphenyl-3-yl)-6-methyl-6-phenyl-1,3-oxazinan-2-one]
< 0.1 | – | 87 | 88.2 | CC1(c2ccccc2)CCN(c2cccc(-c3cc(F)ccc3F)c2)C(=O)O1 (stereo not shown) [EXAMPLE 26, 3-(2′,5′-difluorobiphenyl-3-yl)-6-methyl-6-phenyl-1,3-oxazinan-2-one]
< 0.1 | – | 67 | – | CC1(c2ccccc2)CCN(c2cccc(-c3cc(F)cc(F)c3)c2)C(=O)O1 (stereo not shown) [EXAMPLE 27, 3-(3′,5′-difluorobiphenyl-3-yl)-6-methyl-6-phenyl-1,3-oxazinan-2-one]
0.1 to 1 | – | 29.8 | – | CC1(c2ccccc2)CCN(c2cccc(-c3cccc(NS(C)(=O)=O)c3)c2)C(=O)O1 (stereo not shown) [EXAMPLE 29, N-(3′-(6-methyl-2-oxo-6-phenyl-1,3-oxazinan-3-yl)biphenyl-3-yl)methanesulfonamide]
0.1 to 1 | – | 23.1 | – | CNS(=O)(=O)c1cccc(-c2cccc(N3CCC(C)(c4ccccc4)OC3=O)c2)c1 (stereo not shown) [EXAMPLE 30, N-methyl-3′-(6-methyl-2-oxo-6-phenyl-1,3-oxazinan-3-yl)biphenyl-3-sulfonamide]
0.1 to 1 | – | 27.5 | – | CNC(=O)c1cccc(-c2cccc(N3CCC(C)(c4ccccc4)OC3=O)c2)c1 (stereo not shown) [EXAMPLE 31, N-methyl-3′-(6-methyl-2-oxo-6-phenyl-1,3-oxazinan-3-yl)biphenyl-3-carboxamide]
0.1 to 1 | – | 46 | – | CC1(c2ccccc2)CCN(c2cccc(-c3cccc(N)c3)c2)C(=O)O1 (stereo not shown) [EXAMPLE 32, 3-(3′-aminobiphenyl-3-yl)-6-methyl-6-phenyl-1,3-oxazinan-2-one]
– | – | 37.1 | – | CC1(c2ccccc2)CCN(c2cccc(-c3ccncc3)c2)C(=O)O1 (stereo not shown) [EXAMPLE 33, 6-methyl-6-phenyl-3-(3-(pyridin-4-yl)phenyl)-1,3-oxazinan-2-one]
< 0.1 | – | 72 | – | COc1cccc(-c2cccc(N3CCC(C)(c4ccccc4)OC3=O)c2)c1 (stereo not shown) [EXAMPLE 34, 3-(3′-methoxybiphenyl-3-yl)-6-methyl-6-phenyl-1,3-oxazinan-2-one]
0.1 to 1 | – | 26.7 | – | CC1(c2ccccc2)CCN(c2cccc(-c3ccccc3CO)c2)C(=O)O1 (stereo not shown) [EXAMPLE 35, 3-(2′-(hydroxymethyl)biphenyl-3-yl)-6-methyl-6-phenyl-1,3-oxazinan-2-one]
< 0.1 | – | 63.3 | – | CC1(c2ccccc2)CCN(c2cccc(-c3cccs3)c2)C(=O)O1 (stereo not shown) [EXAMPLE 36, 6-methyl-6-phenyl-3-(3-(thiophen-2-yl)phenyl)-1,3-oxazinan-2-one]
0.1 to 1 | – | 17.8 | – | COC(=O)c1cccc(-c2cccc(N3CCC(C)(c4ccccc4)OC3=O)c2)c1 (stereo not shown) [EXAMPLE 38, methyl 3′-(6-methyl-2-oxo-6-phenyl-1,3-oxazinan-3-yl)biphenyl-3-carboxylate]
0.1 to 1 | – | 24.8 | – | CC1(c2ccccc2)CCN(c2cccc(-c3cccc(CO)c3)c2)C(=O)O1 (stereo not shown) [EXAMPLE 39, 3-(3′-(hydroxymethyl)biphenyl-3-yl)-6-methyl-6-phenyl-1,3-oxazinan-2-one]
0.1 to 1 | – | 28.8 | – | CC1(c2ccccc2)CCN(c2cccc(-c3cccc(S(C)(=O)=O)c3)c2)C(=O)O1 (stereo not shown) [EXAMPLE 40, 6-methyl-3-(3′-(methylsulfonyl)biphenyl-3-yl)-6-phenyl-1,3-oxazinan-2-one]
